Assay [1] deals with EstSP1. Description: p-nitrophenol release at […] nm, Lineweaver-Burk. It is filed as biochemical, Sphingomonas sp. PAMC 26605. Conditions: 40 °C; 0.1-0.5 mM substrate; 3 min; Table 3 and text print 92.5.
Assay [2] deals with EstSP1. The note with it: 40 °C; 0.1-0.5 mM substrate; 3 min; text prints 247.

The structures appear in SMILES notation. Where two headings read alike, the source gives them in different places.

With `CCCC(=O)Oc1ccc([N+](=O)[O-])cc1` [p-nitrophenyl butyrate], the Km (usually the concentration of substrate that gives half-maximal velocity) stood at 92 ± 1.2 µM with EstSP1 [1] and 249 ± 7.8 µM with EstSP1 [2].
